Source: patent publication US11759462B2, “Spirocyclic compounds as tryptophan hydroxylase inhibitors” (priority 2013, dated 2023)

Tests used:
[1] = molecular target: T1, Recombinant human TPH1 (MBP tagged) (Homo sapiens, UniProt P17752); experiment: TPH1 in vitro inhibition assay (kinetic fluorescence); type: biochemical; settings: read-out: TPH1 Range (TPH1 inhibition IC50)
T1 construct: cloning full length human TPH1 cDNA in to a bacterial pMAL-c5E expression vector; made in house; host or cells: E. coli BL21 (DE3)
T1 sequence (P17752 1-444): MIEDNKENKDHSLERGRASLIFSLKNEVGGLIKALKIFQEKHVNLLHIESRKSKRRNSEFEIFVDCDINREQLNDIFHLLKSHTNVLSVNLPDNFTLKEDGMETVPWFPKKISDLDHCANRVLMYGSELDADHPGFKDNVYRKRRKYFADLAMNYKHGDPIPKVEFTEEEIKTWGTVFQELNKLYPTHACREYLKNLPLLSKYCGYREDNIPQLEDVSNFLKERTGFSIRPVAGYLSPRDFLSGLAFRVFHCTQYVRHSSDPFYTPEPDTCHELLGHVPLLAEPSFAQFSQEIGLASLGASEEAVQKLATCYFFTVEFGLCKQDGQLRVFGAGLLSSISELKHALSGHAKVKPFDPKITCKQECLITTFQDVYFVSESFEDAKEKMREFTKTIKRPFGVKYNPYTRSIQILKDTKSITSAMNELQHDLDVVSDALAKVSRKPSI
Summary of the method: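 Final mix: 15 nM MBP-TPH1, 30 μM Trp, 36 μM 6-methyltetrahydropterin, 25 μM ferrous ammonium sulfate, 50 mM MES pH 7.1, 1% DMSO, room temperature.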

[2] = test system: jejunal mucosal 5-HT in mice (C57 BL6); experiment: Intestinal 5-HT depletion assay (Example B, single 150 mg/kg oral dose); type: in vivo, mouse; settings: one day after oral administration of a single 150 mg/kg dose, P-value class (ANOVA)
Protocol: The efficacy of the TPH1 inhibitors of the invention was assessed for the ability to decrease intestinal serotonin concentration in mice. Mice (C57 BL6) were administered a single 150 mg/kg dose of test article by oral gavage. Each animal was euthanized by exsanguination under isoflurane anesthesia. Jejunal intestinal mucosa was isolated and homogenized in 300 μL of a buffer containing 0.3M trichloroacetic acid, 0.1M sodium acetate, 10 mM EDTA, 20 mM sodium bisulfate and 50 mM ascorbic acid. Following centrifugation the 5-HT levels in the supernatants were measured by HPLC. The remaining mucosal pellet was solubilized overnight at 37° C. in a 0.1% sodium dodecyl sulfate buffer in 0.1N NaOH followed by determination of protein concentrations using a BCA protein assay (Pierce, Rockford, Ill. 5-HT levels were normalized to protein and data were expressed as mean percent reduction of mucosal 5-HT levels relative to vehicle control SEM (percent 5-HT reduction). All animal studies were carried out with protocols approved by the Institutional Animal Care and Use Committee.
P-values, indicating statistical significance of the data (ANOVA) are provided in the table: * refers to P<0.05, ** refers to P<0.01, *** refers to P<0.005, and refers to P<0.0005.

Molecule | IC50 [1] [nM] | Efficacy (statistical significance of reduction of mucosal 5-HT concentrations relative to vehicle) [2]
Cc1ccn(-c2cc(-c3ccncc3)ccc2[C@@H](Oc2cc(N3CCC4(CC3)CN[C@H](C(=O)O)C4)nc(N)n2)C(F)(F)F)n1 [Example 1g, (S)-8-(2-amino-6-((R)-2,2,2-trifluoro-1-(2-(3-methyl-1H-pyrazol-1-yl)-4-(pyridin-4-yl)phenyl)ethoxy)pyrimidin-4-yl)-2,8-diazaspiro[4.5]decane-3-carboxylic acid] | < 50 | *** (*** refers to P<0.005)
Cc1ccn(-c2cc(-c3cnn(C)c3)ccc2[C@@H](Oc2cc(N3CCC4(CC3)CN[C@H](C(=O)O)C4)nc(N)n2)C(F)(F)F)n1 [Example 1h, (S)-8-(2-amino-6-((R)-2,2,2-trifluoro-1-(2-(3-methyl-1H-pyrazol-1-yl)-4-(1-methyl-1H-pyrazol-4-yl)phenyl)ethoxy)pyrimidin-4-yl)-2,8-diazaspiro[4.5]decane-3-carboxylic acid] | < 50 | ** (** refers to P<0.01)
Cc1ccn(-c2cc(-c3ccc4c(C)n[nH]c4c3)ccc2[C@@H](Oc2cc(N3CCC4(CC3)CN[C@H](C(=O)O)C4)nc(N)n2)C(F)(F)F)n1 [Example 1o, (S)-8-(2-amino-6-((R)-2,2,2-trifluoro-1-(4-(3-methyl-1H-indazol-6-yl)-2-(3-methyl-1H-pyrazol-1-yl)phenyl)ethoxy)pyrimidin-4-yl)-2,8-diazaspiro[4.5]decane-3-carboxylic acid] | < 50 | ** (** refers to P<0.01)
Cc1ccn(-c2cc(-c3ccc(C(C)(C)C)cc3)ccc2[C@@H](Oc2cc(N3CCC4(CC3)CN[C@H](C(=O)O)C4)nc(N)n2)C(F)(F)F)n1 [Example 1p, (S)-8-(2-amino-6-((R)-1-(4′-(tert-butyl)-3-(3-methyl-1H-pyrazol-1-yl)-[1,1′-biphenyl]-4-yl)-2,2,2-trifluoroethoxy)pyrimidin-4-yl)-2,8-diazaspiro[4.5]decane-3-carboxylic acid] | < 50 | ** (** refers to P<0.01)
(S)-2-(pivaloyloxy)ethyl 8-(2-amino-6- ((R)-1-(4-chloro-2-(3-methyl-1H-pyrazol- 1-yl)phenyl)-2,2,2- trifluoroethoxy)pyrimidin-4-yl)-2,8- diazaspiro[4.5]decane-3-carboxylate [Example 66d] | – | **** (and refers to P<0.0005)
(S)-isopropyl 8-(2-amino-6-((R)-1-(4-chloro-2-(3-methyl- 1H-pyrazol-1-yl)phenyl)-2,2,2-trifluoroethoxy)pyrimidin- 4-yl)-2,8-diazaspiro[4.5]decane-3-carboxylate [Example 64h] | – | ** (** refers to P<0.01)

The next lines start with results.

IC50 [1] [nM] | Molecule | Efficacy (statistical significance of reduction of mucosal 5-HT concentrations relative to vehicle) [2]
< 50 | CC(=O)NCCc1ccc(-c2ccc([C@@H](Oc3cc(N4CCC5(CC4)CN[C@H](C(=O)O)C5)nc(N)n3)C(F)(F)F)c(-n3ccc(C)n3)c2)cc1 [Example 1y, (S)-8-(6-((R)-1-(4′-(2-acetamidoethyl)-3-(3-methyl-1H-pyrazol-1-yl)-[1,1′-biphenyl]-4-yl)-2,2,2-trifluoroethoxy)-2-aminopyrimidin-4-yl)-2,8-diazaspiro[4.5]decane-3-carboxylic acid] | ** (** refers to P<0.01)
50 to 300 | COc1ccc([C@@H](Oc2cc(N3CCC4(CC3)CNC(C(=O)O)C4)nc(N)n2)C(F)(F)F)c(-n2ccc(C)n2)c1 (stereo partly drawn) [Example 10j, 8-(2-amino-6-((R)-2,2,2-trifluoro-1-(4-methoxy-2-(3-methyl-1H-pyrazol-1-yl)phenyl)ethoxy)pyrimidin-4-yl)-2,8-diazaspiro[4.5]decane-3-carboxylic acid] | **** (and refers to P<0.0005)
50 to 300 | Cc1ccn(-c2ccc(Cl)cc2[C@@H](Oc2cc(N3CCC4(CC3)CNC(C(=O)O)C4)nc(N)n2)C(F)(F)F)n1 (stereo partly drawn) [Example 10k, 8-(2-amino-6-((R)-1-(5-chloro-2-(3-methyl-1H-pyrazol-1-yl)phenyl)-2,2,2-trifluoroethoxy)pyrimidin-4-yl)-2,8-diazaspiro[4.5]decane-3-carboxylic acid] | * (* refers to P<0.05)
50 to 300 | Cc1ccc([C@@H](Oc2cc(N3CCC4(CC3)CN[C@H](C(=O)O)C4)nc(N)n2)C(F)(F)F)c(-n2ccc(C)n2)n1 [Example 11, (S)-8-(2-amino-6-((R)-2,2,2-trifluoro-1-(6-methyl-2-(3-methyl-1H-pyrazol-1-yl)pyridin-3-yl)ethoxy)pyrimidin-4-yl)-2,8-diazaspiro[4.5]decane-3-carboxylic acid] | **** (and refers to P<0.0005)
< 50 | CCCc1ccc([C@@H](Oc2cc(N3CCC4(CC3)CN[C@H](C(=O)O)C4)nc(N)n2)C(F)(F)F)c(-n2ccc(C)n2)c1 [Example 12b, (S)-8-(2-amino-6-((R)-2,2,2-trifluoro-1-(2-(3-methyl-1H-pyrazol-1-yl)-4-propylphenyl)ethoxy)pyrimidin-4-yl)-2,8-diazaspiro[4.5]decane-3-carboxylic acid] | * (* refers to P<0.05)
300 to 3000 | Cc1ccn(-c2cc(C(=O)O)ccc2[C@@H](Oc2cc(N3CCC4(CC3)CN[C@H](C(=O)O)C4)nc(N)n2)C(F)(F)F)n1 [Example 16, (S)-8-(2-amino-6-((R)-1-(4-carboxy-2-(3-methyl-H-pyrazol-1-yl)phenyl)-2,2,2-trifluoroethoxy)pyrimidin-4-yl)-2,8-diazaspiro[4.5]decane-3-carboxylic acid] | ** (** refers to P<0.01)
< 50 | CCCCc1ccc(-n2ccc(C)n2)c([C@@H](Oc2cc(N3CCC4(CC3)CN[C@H](C(=O)O)C4)nc(N)n2)C(F)(F)F)c1 [Example 22c, (S)-8-(2-amino-6-((R)-1-(5-butyl-2-(3-methyl-1H-pyrazol-1-yl)phenyl)-2,2,2-trifluoroethoxy)pyrimidin-4-yl)-2,8-diazaspiro[4.5]decane-3-carboxylic acid] | * (* refers to P<0.05)
50 to 300 | Nc1nc(O[C@H](c2ccc(Cl)cc2-c2ccc(Cl)s2)C(F)(F)F)cc(N2CCC3(CC2)CN[C@H](C(=O)O)C3)n1 [Example 34s, (S)-8-(2-amino-6-((R)-1-(4-chloro-2-(5-chlorothiophen-2-yl)phenyl)-2,2,2-trifluoroethoxy)pyrimidin-4-yl)-2,8-diazaspiro[4.5]decane-3-carboxylic acid] | ** (** refers to P<0.01)
